# Assay results: ChEMBL document CHEMBL5370554, “Discovery of a first-in-class Aurora A covalent inhibitor for the treatment of triple negative breast cancer” (Eur J Med Chem, 2023)
# Key:
# [1] = Cytotoxicity against human L02 cells assessed as inhibition of cell proliferation incubated for 48 hrs by CCK-8 assay; type: toxicity, cell-based
# [2] = Toxicity in BALB/c nude mouse xenografted with human MDA-MB-231 cells assessed as parenchymal injury in liver at 15 mg/kg,ip every 2days for 20 days by Hematoxylin and Eosin staining based microscopy; type: organism-based; settings: in vivo, 480 h, time 20 day
# [3] = test system: MDA-MB-231; experiment: Induction of apoptosis in human MDA-MB-231 cells assessed as live cells at 2.5 uM incubated for 24 hrs by Annexin V-FITC staining based flow cytometry (Rvb= 88.1%); type: functional
# [4] = Toxicity in BALB/c nude mouse xenografted with human MDA-MB-231 cells assessed as parenchymal injury in kidney at 15 mg/kg,ip every 2days for 20 days by Hematoxylin and Eosin staining based microscopy; type: organism-based; settings: in vivo, 480 h, time 20 day
# [5] = Toxicity in BALB/c nude mouse xenografted with human MDA-MB-231 cells assessed as inflammatory cell infiltration in kidney at 15 mg/kg,ip every 2days for 20 days by Hematoxylin and Eosin staining based microscopy; type: organism-based; settings: in vivo, 480 h, time 20 day
# [6] = test system: MDA-MB-231; experiment: Induction of apoptosis in human MDA-MB-231 cells assessed as live cells at 5 uM incubated for 24 hrs by Annexin V-FITC staining based flow cytometry (Rvb= 88.1%); type: functional
smiles,measurement,setting,value
C=CC(=O)Nc1ccc(-c2nc(Nc3cc(C)[nH]n3)c3ccc(N4CCN(C)CC4)cc3n2)cc1,IC50 at 48 h,[1],23.4 µM
same,Activity,[2],Non-Toxic
same,Activity,[3],60.1%
same,Activity,[4],Non-Toxic
same,Activity,[5],Non-Toxic
same,Activity,[6],8.59%
